Test results published in ChEMBL document CHEMBL3797035 (Bioorg Med Chem, 2016).

How the values were obtained:
D(2) dopamine receptor [1] = target: T1, D(2) dopamine receptor (Homo sapiens, UniProt P14416); assay: Agonist activity at ARMS2-PK-tagged D2S receptor (unknown origin) transfected in HEK293 cells after 5 hrs by beta-arrestin assay; type: cell-based
[2] = target: T2, Beta-2 adrenergic receptor (Homo sapiens, UniProt P07550); assay: Displacement of [3H]CGP12177 from human beta2 receptor expressed in CHO cells; type: cell-based
D(1A) dopamine receptor = D(1A) dopamine receptor (Homo sapiens, UniProt P21728); assay: Displacement of [3H]SCH23390 from human D1 receptor expressed in HEK293 cells; type: cell-based
[3] = target: Beta-1 adrenergic receptor (Mus musculus, UniProt P34971); assay: Displacement of [3H]CGP12177 from mouse beta1 receptor expressed in HEK293 cells; type: cell-based
[4] = Displacement of [3H]prazosine from alpha-1 receptor in porcine cortical membranes; type: cell membranes, Sus scrofa
D(2) dopamine receptor [5] = target: T1, D(2) dopamine receptor; assay: Displacement of [3H]spiperone from human D2S receptor expressed in CHO cells; type: cell-based
D(2) dopamine receptor [6] = target: T1, D(2) dopamine receptor; assay: Displacement of [3H]spiperone from human D2L receptor expressed in CHO cells; type: cell-based
D(3) dopamine receptor = D(3) dopamine receptor (Homo sapiens, UniProt P35462); assay: Displacement of [3H]spiperone from human D3 receptor expressed in CHO cells; type: cell-based
D(2) dopamine receptor [7] = target: T1, D(2) dopamine receptor; assay: Agonist activity at human D2S receptor expressed in HEK293 cells cotransfected with Gqi5 protein assessed as [3H]IP3 accumulation after 120 mins by scintillation counting assay in presence of myo-[3H]-inositol; type: functional, cell-based
D(4) dopamine receptor = target: T3, D(4) dopamine receptor (Homo sapiens, UniProt P21917); assay: Displacement of [3H]spiperone from human D4.4 receptor expressed in CHO cells; type: cell-based
T3 sequence (P21917 whole entry): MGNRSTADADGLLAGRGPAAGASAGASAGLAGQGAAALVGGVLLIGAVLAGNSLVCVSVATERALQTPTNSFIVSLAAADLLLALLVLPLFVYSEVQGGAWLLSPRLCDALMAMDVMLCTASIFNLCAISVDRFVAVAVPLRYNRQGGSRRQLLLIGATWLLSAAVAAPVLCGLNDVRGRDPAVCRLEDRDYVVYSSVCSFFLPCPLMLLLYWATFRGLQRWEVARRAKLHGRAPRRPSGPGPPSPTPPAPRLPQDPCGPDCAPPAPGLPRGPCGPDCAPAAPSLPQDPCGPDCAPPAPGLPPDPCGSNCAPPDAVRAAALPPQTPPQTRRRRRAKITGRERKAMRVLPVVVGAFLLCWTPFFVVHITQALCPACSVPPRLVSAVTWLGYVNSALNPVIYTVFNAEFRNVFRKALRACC

[8] = Displacement of [3H]RX821002 from alpha-2 receptor in porcine cortical membranes; type: cell membranes, Sus scrofa
[9] = target: T2, Beta-2 adrenergic receptor; assay: Agonist activity at human beta2 receptor expressed in HEK293 cells cotransfected with Gqs5 protein assessed as [3H]IP3 accumulation after 120 mins by scintillation counting assay in presence of myo-[3H]-inositol; type: functional, cell-based
[10] = target: T2, Beta-2 adrenergic receptor; assay: Agonist activity at PK-tagged beta2 receptor (unknown origin) transfected in HEK293 cells after 90 mins by beta-arrestin assay; type: cell-based
Homo sapiens = species: Homo sapiens; assay: Selectivity index, ratio of Ki for human D2S receptor to Ki for human beta2 receptor

T1 sequence (P14416 whole entry): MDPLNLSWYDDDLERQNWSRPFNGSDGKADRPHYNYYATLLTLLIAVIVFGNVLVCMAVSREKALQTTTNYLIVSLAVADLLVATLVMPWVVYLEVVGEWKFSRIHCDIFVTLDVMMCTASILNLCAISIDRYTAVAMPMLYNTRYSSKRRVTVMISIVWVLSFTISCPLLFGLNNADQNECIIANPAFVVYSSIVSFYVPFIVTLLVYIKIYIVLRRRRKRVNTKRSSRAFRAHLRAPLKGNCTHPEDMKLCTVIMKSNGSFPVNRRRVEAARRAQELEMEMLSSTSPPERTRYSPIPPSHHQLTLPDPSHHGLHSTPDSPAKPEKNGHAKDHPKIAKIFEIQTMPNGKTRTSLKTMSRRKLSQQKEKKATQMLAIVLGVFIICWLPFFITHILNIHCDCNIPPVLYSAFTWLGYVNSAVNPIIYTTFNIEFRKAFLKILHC
Chain of Beta-1 adrenergic receptor (P34971 whole entry): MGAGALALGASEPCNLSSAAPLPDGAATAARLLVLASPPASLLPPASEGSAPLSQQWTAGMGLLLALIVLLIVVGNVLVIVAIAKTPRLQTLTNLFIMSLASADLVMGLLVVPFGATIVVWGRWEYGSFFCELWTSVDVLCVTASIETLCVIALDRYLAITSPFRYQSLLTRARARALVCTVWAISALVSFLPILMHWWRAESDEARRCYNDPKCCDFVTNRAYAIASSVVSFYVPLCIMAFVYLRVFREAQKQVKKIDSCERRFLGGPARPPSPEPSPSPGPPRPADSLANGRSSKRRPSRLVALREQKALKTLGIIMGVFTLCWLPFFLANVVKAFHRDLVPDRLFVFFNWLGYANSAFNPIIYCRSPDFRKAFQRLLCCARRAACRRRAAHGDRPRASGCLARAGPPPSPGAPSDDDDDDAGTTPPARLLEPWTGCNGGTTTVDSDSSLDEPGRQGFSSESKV
Chain of D(3) dopamine receptor (P35462 whole entry): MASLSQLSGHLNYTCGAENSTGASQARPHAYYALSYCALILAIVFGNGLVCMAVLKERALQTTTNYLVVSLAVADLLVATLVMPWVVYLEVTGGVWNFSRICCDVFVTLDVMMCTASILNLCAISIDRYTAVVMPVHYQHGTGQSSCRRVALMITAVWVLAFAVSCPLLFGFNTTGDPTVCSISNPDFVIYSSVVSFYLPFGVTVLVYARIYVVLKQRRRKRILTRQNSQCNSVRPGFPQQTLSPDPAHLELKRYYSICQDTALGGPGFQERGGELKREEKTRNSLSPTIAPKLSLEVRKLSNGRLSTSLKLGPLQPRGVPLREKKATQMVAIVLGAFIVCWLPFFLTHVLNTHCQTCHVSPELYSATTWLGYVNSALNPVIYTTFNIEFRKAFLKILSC
Chain of D(1A) dopamine receptor (P21728 whole entry): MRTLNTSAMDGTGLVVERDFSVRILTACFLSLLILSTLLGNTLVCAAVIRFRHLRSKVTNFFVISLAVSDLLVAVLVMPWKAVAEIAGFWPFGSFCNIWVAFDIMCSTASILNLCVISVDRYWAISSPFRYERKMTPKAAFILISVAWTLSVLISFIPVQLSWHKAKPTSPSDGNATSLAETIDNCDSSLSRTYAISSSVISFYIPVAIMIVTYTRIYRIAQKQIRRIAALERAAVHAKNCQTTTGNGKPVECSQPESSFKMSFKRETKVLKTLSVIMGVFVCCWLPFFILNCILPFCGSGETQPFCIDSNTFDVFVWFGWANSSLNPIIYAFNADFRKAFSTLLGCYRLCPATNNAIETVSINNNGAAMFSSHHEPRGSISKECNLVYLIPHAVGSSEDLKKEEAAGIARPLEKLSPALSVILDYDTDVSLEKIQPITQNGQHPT
T2 sequence (P07550 whole entry): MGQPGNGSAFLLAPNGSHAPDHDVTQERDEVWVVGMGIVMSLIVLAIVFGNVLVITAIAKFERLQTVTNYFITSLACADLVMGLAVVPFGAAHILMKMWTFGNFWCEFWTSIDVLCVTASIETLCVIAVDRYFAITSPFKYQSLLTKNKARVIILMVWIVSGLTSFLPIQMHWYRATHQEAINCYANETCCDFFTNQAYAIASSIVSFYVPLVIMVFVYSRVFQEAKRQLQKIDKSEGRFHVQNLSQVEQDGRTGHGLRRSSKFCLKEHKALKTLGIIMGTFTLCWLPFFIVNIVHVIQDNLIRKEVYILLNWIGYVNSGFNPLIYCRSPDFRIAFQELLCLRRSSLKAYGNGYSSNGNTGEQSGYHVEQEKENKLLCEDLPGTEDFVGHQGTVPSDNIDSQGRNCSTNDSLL

| SMILES | EC50 (D(2) dopamine receptor [1]) | Ki [2] | Ki (D(1A) dopamine receptor) | Ki [3] | Ki [4] | Ki (D(2) dopamine receptor [5]) | Ki (D(2) dopamine receptor [6]) | Ki (D(3) dopamine receptor) | EC50 (D(2) dopamine receptor [7]) | Ki (D(4) dopamine receptor) | Ki [8] | EC50 [9] | EC50 [10] | Ratio Ki (Homo sapiens) |
| --- | --- | --- | --- | --- | --- | --- | --- | --- | --- | --- | --- | --- | --- | --- |
| COc1cc(CCNCCc2ccc(O)c3c2OCC(=O)N3)ccc1OCCCc1ccccc1 | 1100 nM | 2.8 nM | 960 nM | 79 nM | 120 nM | 17 nM | 12 nM | 3.5 nM | 2.6 nM | 55 nM | 270 nM | – | – | – |
| NC[C@H](O)c1ccc(O)c(O)c1 [NOREPINEPHRINE] | – | – | – | – | – | 1300 nM | – | – | – | – | – | – | – | – |
| COc1ccccc1OCCNC[C@H](O)c1ccc(O)c(O)c1 | – | 97 nM | 890 nM | 160 nM | 50 nM | 430 nM | 640 nM | 2200 nM | 170 nM | 300 nM | 420 nM | 120 nM | 210 nM | – |
| CCCN1CCC[C@@H]2Cc3n[nH]cc3C[C@H]21 [QUINPIROLE] | – | 100000 nM | – | – | – | – | – | – | – | – | – | – | – | – |
| COc1cc(CCNC[C@@H](O)c2ccc(O)c(O)c2)ccc1OCCCc1ccccc1 | – | 47 nM | 2900 nM | 530 nM | – | 1700 nM | 1900 nM | 660 nM | – | 1000 nM | 2500 nM | 2600 nM | 650 nM | – |
| COc1ccccc1OCCNC[C@@H](O)COc1cccc2[nH]c3ccccc3c12 [(R)-Carvedilol] | – | – | – | – | – | 26 nM | – | – | – | – | – | – | – | – |
| CCCN[C@H]1CCc2nc(N)sc2C1 [PRAMIPEXOLE] | – | 100000 nM | – | – | – | – | – | – | – | – | – | – | – | – |
| COc1ccccc1OCCNCCc1ccc(O)c(O)c1 | – | 610 nM | 210 nM | 5000 nM | 4.7 nM | 48 nM | 85 nM | 25 nM | 25 nM | 4.5 nM | 390 nM | 720 nM | – | – |
| COc1cc(CCNC[C@@H](O)c2ccc(O)c3[nH]c(=O)ccc23)ccc1OCCCc1ccccc1 | – | 23 nM | 6800 nM | 300 nM | 1800 nM | 2300 nM | 2900 nM | 790 nM | – | 9200 nM | – | 840 nM | 510 nM | – |
| COc1cc(CCNC[C@H](O)c2ccc(O)c(O)c2)ccc1OCCCc1ccccc1 | – | 18 nM | 430 nM | 85 nM | 16 nM | 67 nM | 110 nM | 62 nM | 200 nM | 140 nM | 1200 nM | 5100 nM | 260 nM | – |
| COc1cc(CCNC[C@H](O)c2ccc(O)c3c2OCC(=O)N3)ccc1OCCCc1ccccc1 | 13000 nM | 0.25 nM | 4500 nM | 5.1 nM | 1900 nM | 65 nM | 130 nM | 690 nM | 98 nM | 1400 nM | 4700 nM | 7 nM | 13 nM | – |
| COc1cc(CCNC[C@@H](O)c2ccc(O)c3c2OCC(=O)N3)ccc1OCCCc1ccccc1 | 8800 nM | 13 nM | 2800 nM | 180 nM | 1100 nM | 96 nM | 310 nM | 400 nM | 7.3 nM | 5400 nM | 2200 nM | 1000 nM | 580 nM | – |
| COc1cc(CCNCCc2ccc(O)c(O)c2)ccc1OCCCc1ccccc1 | 2600 nM | 53 nM | 860 nM | 2300 nM | 400 nM | 120 nM | 63 nM | 12 nM | 110 nM | 38 nM | 810 nM | 47000 nM | – | – |
| CNC[C@H](O)c1ccc(O)c(O)c1 [EPINEPHRINE] | – | – | – | – | – | 910 nM | – | – | – | – | – | – | – | – |
| OCc1cc(C(O)CNCCCCCCOCCCCc2ccccc2)ccc1O (centres undefined) [SALMETEROL] | – | – | – | – | – | 32000 nM | – | – | – | – | – | – | – | – |
| CCCN(CCC)[C@@H]1CCc2ccc(O)cc2C1 | – | 86000 nM | – | – | – | – | – | – | – | – | – | – | – | – |
| CC(C)NCC(O)c1ccc(O)c(O)c1 (centres undefined) [ISOPROTERENOL] | – | – | > 50000 nM | – | 78000 nM | 12000 nM | 48000 nM | 4700 nM | – | 2900 nM | 5700 nM | – | – | – |
| CCCN(CCC)[C@H]1CCc2c(O)cccc2C1 | – | 40000 nM | – | – | – | – | – | – | – | – | – | – | – | – |
| COc1cc(CCNC[C@H](O)c2ccc(O)c3[nH]c(=O)ccc23)ccc1OCCCc1ccccc1 | – | 0.48 nM | 11000 nM | 5.8 nM | 1400 nM | 3200 nM | 5700 nM | 1700 nM | – | 3300 nM | – | 6.2 nM | 22 nM | – |
| COc1ccccc1OCCNC[C@@H](O)c1ccc(O)c(O)c1 | – | 850 nM | 430 nM | 1500 nM | 19 nM | 200 nM | 350 nM | 610 nM | – | 240 nM | 760 nM | 1400 nM | 2200 nM | – |
| CCC(NC(C)C)C(O)c1ccc(O)c2[nH]c(=O)ccc12 (centres undefined) [PROCATEROL] | – | 33 nM | – | – | – | 86000 nM | – | – | – | – | – | – | – | 2600 |
| COc1cc(CCNCCc2ccc(O)c3[nH]c(=O)ccc23)ccc1OCCCc1ccccc1 | 240 nM | 6.3 nM | 2800 nM | 150 nM | 920 nM | 160 nM | 64 nM | 18 nM | 17 nM | 900 nM | 13000 nM | – | – | – |
